Patent US8133849B2, “Herbicidal compounds” (Syngenta Limited, priority 2007, dated 2012)

Assays:
Assay type in all cases: in vivo
Nasturtium officinale = test: Example B1 herbicidal action, post-emergence, seed trays in climatic chamber, damage score 0-10; conditions: 1000 g/ha, evaluated after 9 days, 10=total damage to plant, 0=no damage to plant
Procedure: (§1) Seeds of a variety of test species were sown in sterilized standard soil in seed trays each having 96 cells. After cultivation for 8 to 9 days cultivation (post-emergence) under controlled conditions in a climatic chamber (cultivation at 23/17° C., day/night; 13 hours light; 50-60% humidity), the plants were treated with an aqueous spray solution of 1000 mg/l of the active ingredient dissolved in 10% DMSO (dimethyl sulfoxide, CAS RN 67-68-5) as a solvent, equivalent to 1000 g/ha. The plants were grown in the climatic chamber after application at (24/19° C., day/night; 13 hours light; 50-60% humidity) and watered twice daily. After 9 days until the test was evaluated (10=total damage to plant, 0=no damage to plant)

Stellaria media = test: as above; conditions: 1000 g/ha, evaluated after 9 days, 10=total damage to plant, 0=no damage to plant
Procedure: as §1

Solanum nigrum [1] = test: as above; conditions: 1000 g/ha, evaluated after 9 days, 10=total damage to plant, 0=no damage to plant
Procedure: as §1

Amaranthus retroflexus [2] = test: as above; conditions: 1000 g/ha, evaluated after 9 days, 10=total damage to plant, 0=no damage to plant
Procedure: as §1

Echinochloa crus-galli = test: Example B2 herbicidal action, post-emergence, pots in glasshouse, damage score 0-10; conditions: application post-emergence, rate 1000 g/ha, evaluated after 13 days
Outline: (§2)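 Damage was assessed 13 days after a post-emergence spray given to 8-day-old pot seedlings. The spray was an aqueous solution from an acetone/water (50:50) formulation with 0.5% Tween 20. Plants grew in a glasshouse at 24/16° C, 14 h light, 65% humidity, watered twice daily.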

Ipomea hederaceae = test: as above; conditions: application post-emergence, rate 1000 g/ha, evaluated after 13 days
Outline: as §2

Setaria faberi = test: as above; conditions: application post-emergence, rate 1000 g/ha, evaluated after 13 days
Outline: as §2

Solanum nigrum [3] = test: as above; conditions: application post-emergence, rate 1000 g/ha, evaluated after 13 days
Outline: as §2

Amaranthus retroflexus [4] = test: as above; conditions: application post-emergence, rate 1000 g/ha, evaluated after 13 days
Outline: as §2

SMILES	damage to plant, NAAOF (Nasturtium officinale)	damage to plant, STEME (Stellaria media)	damage to plant, SOLNI (Solanum nigrum [1])	damage to plant, AMARE (Amaranthus retroflexus [2])	ECHCG damage score (10=total damage to plant; 0=no damage to plant) (Echinochloa crus-galli)	IPOHE damage score (10=total damage to plant; 0=no damage to plant) (Ipomea hederaceae)	SETFA damage score (10=total damage to plant; 0=no damage to plant) (Setaria faberi)	SOLNI damage score (10=total damage to plant; 0=no damage to plant) (Solanum nigrum [3])	AMARE damage score (10=total damage to plant; 0=no damage to plant) (Amaranthus retroflexus [4])
CN1c2nccnc2C(OC(=O)C(C)(C)C)=C(c2ccc(Cl)cc2Cl)S1(=O)=O [Compound C2]	4	6	0	3	–	–	–	–	–
CC(C)(C)C(=O)OC1=C(c2c(F)ccc(F)c2Cl)S(=O)(=O)Nc2nccnc21 [Compound B3, 2,2-dimethyl-propionic acid-3-(2-chloro-3,6-difluoro-phenyl)-2,2-dioxo-1,2-dihydro-2-λ-6-thia-1,5,8-triaza-naphthalen-4-yl ester]	0	0	2	0	–	–	–	–	–
CCN1c2nccnc2C(OC(=O)C(C)C)=C(c2ccc(Cl)cc2Cl)S1(=O)=O [Compound C6]	8	8	7	0	–	–	–	–	–
CN1c2nccnc2C(OC(=O)C(C)(C)C)=C(c2ccc(Cl)c(Cl)c2)S1(=O)=O [Compound C8]	0	0	7	2	–	–	–	–	–
CN1c2nccnc2C(OC(=O)C2CC2)=C(c2ccc(Cl)cc2Cl)S1(=O)=O [Compound C1]	4	6	3	0	–	–	–	–	–
COC1=C(c2ccc(Cl)cc2Cl)S(=O)(=O)N(C)c2nccnc21 [Compound C3, 3-(2,4-dichloro-phenyl)-4-methoxy-1-methyl-1H-2-thia-1,5,8-triazanaphthalen-2,2-dioxide]	2	2	3	1	–	–	–	–	–
CCN1c2nccnc2C(OC(=O)C(C)(C)C)=C(c2c(F)ccc(F)c2Cl)S1(=O)=O [Compound C7]	8	8	7	3	–	–	–	–	–
COC1=C(c2cc3ccccc3nc2Cl)S(=O)(=O)N(C)c2nccnc21 [Compound C40]	0	1	0	0	–	–	–	–	–
CC(C)(C)C(=O)OC1=C(c2ccc(Cl)cc2Cl)S(=O)(=O)Nc2nccnc21 [Compound B1]	0	0	2	0	–	–	–	–	–
CC(C)C(=O)OC1=C(c2cccc(C(F)(F)F)c2Cl)S(=O)(=O)N(CC(F)F)c2nccnc21 [Compound C73]	–	–	–	–	2	7	2	7	7
COc1ccc(F)c(C2=C(OC(=O)C(C)(C)C)c3nccnc3N(CC(F)F)S2(=O)=O)c1Cl [Compound C25]	–	–	–	–	6	9	0	10	9
CC(C)C(=O)OC1=C(c2ccccc2I)S(=O)(=O)N(CC(F)F)c2nccnc21 [Compound C117]	–	–	–	–	8	9	7	10	10
CCN1c2nccnc2C(OC(=O)C(C)C)=C(c2cc(Cl)ccc2C(F)(F)F)S1(=O)=O [Compound C110]	–	–	–	–	5	8	4	8	9
CCN1c2nccnc2C(OC(=O)C(C)(C)C)=C(c2c(F)cccc2C(F)(F)F)S1(=O)=O [Compound C43]	–	–	–	–	5	5	3	6	5
C#CCN1c2nccnc2C(OC(=O)C(C)C)=C(c2ccccc2[N+](=O)[O-])S1(=O)=O [Compound C68]	–	–	–	–	0	1	0	2	0
O=S1(=O)C(c2c(F)ccc(Cl)c2Cl)=C(O)c2nccnc2N1CC(F)F [Compound D9, 3-(2,3-dichloro-6-fluoro-phenyl)-1-(2,2-difluoro-ethyl)-2,2-dioxo-1,2-dihydro-2-λ-6-thia-1,5,8-triaza-naphthalen-4-ol]	–	–	–	–	4	10	2	10	9
CCN1c2nccnc2C(OC(=O)C(C)C)=C(c2ccccc2C(F)(F)F)S1(=O)=O [Compound C63]	–	–	–	–	7	10	7	9	9
CCSC(=O)OC1=C(c2cc(C(F)(F)F)ccc2Cl)S(=O)(=O)N(C)c2nccnc21 [Compound C89]	–	–	–	–	6	9	1	10	7
CC(C)C(=O)OC1=C(c2c(Cl)ccc(Cl)c2C(F)(F)F)S(=O)(=O)N(CC(F)F)c2nccnc21 [Compound C53]	–	–	–	–	8	4	5	5	8
